Test results reported in article PMC8963254, “Effects of Lysine N-ζ-Methylation in Ultrashort Tetrabasic Lipopeptides (UTBLPs) on the Potentiation of Rifampicin, Novobiocin, and Niclosamide in Gram-Negative Bacteria” (Antibiotics, 2022).
Values after ≈ are worked out from the molar mass of the structure shown. Where two headings read alike, the source gives them in different places.

What was measured:
[1] = system: P. aeruginosa PA259-96196; experiment: microbe, parasite or virus in culture; type: cell-based, Pseudomonas aeruginosa; conditions: PA259-96196, 18 h
Outline: (§1)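 MIC was determined by broth microdilution following CLSI guidelines. Serially varied compound concentrations were incubated with bacterial inoculum at 5 × 10^5 CFU/mL (final) for 18 h at 37 °C. Growth was scored as turbidity by absorbance at 590 nm.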

[2] = system: P. aeruginosa PA262-101856; experiment: microbe, parasite or virus in culture; type: cell-based, Pseudomonas aeruginosa; conditions: PA262-101856, 18 h
Outline: as §1

[3] = system: K. pneumoniae 113250; experiment: microbe, parasite or virus in culture; type: cell-based, Klebsiella pneumoniae; conditions: 113250, 18 h
Outline: as §1

[4] = system: P. aeruginosa PAO1; type: cell-based, Pseudomonas aeruginosa; conditions: PAO1, 18 h
Method: (§2) The in vitro antibacterial activity of the UTBLPs was assessed against wild-type and clinically isolated bacterial strains. To obtain the MIC of the compounds, the microbroth dilution susceptibility assay was performed according to the Clinical and Laboratory Standards Institute (CLSI, Wayne, PA, USA) guidelines and as previously described. Briefly, the compounds at varying concentrations were incubated with bacterial inoculum (5 × 10^5 CFU/mL final concentration) at 37 °C for 18 h. Growth in the form of turbidity was confirmed using an EMax Plus microplate reader (Molecular Devices, San Jose, CA, USA) at 590 nm.

[5] = system: E. faecium ATCC 27270; type: cell-based, Enterococcus faecium
Method: (§3) The synergy of the UTBLPs with various antibiotics was assessed using checkerboard assay as previously described. Briefly, the combination of antibiotic and OMP at varying concentrations were incubated with bacterial inoculum (5 × 10^5 CFU/mL final concentration) at 37 °C for 18 h. Growth in the form of turbidity was confirmed using an EMax Plus microplate reader (Molecular Devices, Union City, CA, USA) at 590 nm. Fractional inhibitory concentration index (FICI) was used to evaluate the interaction between the antibiotic and the OMP. FICI is the sum of the FIC of the antibiotic and the FIC of the OMP. The FIC value is calculated by dividing the MIC of the agents in combination by the MIC of the agent alone. FICI ≤ 0.5 is synergistic, 0.5 < x ≤ 4 is additive, and >4 is antagonistic.

[6] = system: MSSE 81388; type: cell-based, Staphylococcus epidermidis; conditions: 18 h
Method: as §2

[7] = system: MRSE 61589; type: cell-based, Staphylococcus epidermidis; conditions: 61589, 18 h
Method: as §2

[8] = system: E. coli 94474; experiment: microbe, parasite or virus in culture; type: cell-based, Escherichia coli; conditions: 94474, 18 h
Outline: as §1

[9] = system: E. coli 94393; experiment: microbe, parasite or virus in culture; type: cell-based, Escherichia coli; conditions: 94393, 18 h
Outline: as §1

[10] = system: E. coli ATCC 25922; type: cell-based, Escherichia coli; conditions: for MICUTBLP: UTBLP alone
Outline: (§4)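 Checkerboard synergy assay: antibiotic and OMP combined at varying concentrations with 5 × 10^5 CFU/mL inoculum (final), 37 °C, 18 h; growth read as turbidity at 590 nm. FICI = sum of FICs (MIC in combination / MIC alone); ≤0.5 synergistic, 0.5–4 additive, >4 antagonistic.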

[11] = system: E. coli 94393; type: cell-based, Escherichia coli; conditions: for MICUTBLP: UTBLP alone
Outline: as §4

[12] = system: E. faecalis ATCC 29212; type: cell-based, Enterococcus faecalis
Method: as §3

[13] = system: S. aureus ATCC 29213; type: cell-based, Staphylococcus aureus; conditions: ATCC 29213, 18 h
Method: as §2

[14] = system: MRSA ATCC 33592; type: cell-based, Staphylococcus aureus; conditions: ATCC 33592, 18 h
Method: as §2

[15] = system: E. coli ATCC 25922; type: cell-based, Escherichia coli; conditions: ATCC 25922, 18 h
Method: as §2

[16] = system: MSSE 81388; type: cell-based, Staphylococcus epidermidis
Method: as §3

[17] = system: MRSE 61589; type: cell-based, Staphylococcus epidermidis
Method: as §3

[18] = system: E. cloacae 118564; experiment: microbe, parasite or virus in culture; type: cell-based, Enterobacter cloacae; conditions: 118564, 18 h
Outline: as §1

[19] = UTBLP alone, plate with chloramphenicol
[20] = UTBLP in combination with chloramphenicol
[21] = chloramphenicol in combination with the UTBLP
[22] = UTBLP in combination with novobiocin
[23] = UTBLP in combination with rifampicin
[24] = novobiocin in combination with the UTBLP
[25] = rifampicin in combination with the UTBLP

CCCCCCCC(=O)N[C@@H](CCCCNC)C(=O)NCCCN(CCCNC(=O)[C@H](CCCCNC)NC(=O)CCCCCCC)CC(=O)N[C@@H](CCCCNC)C(N)=O [UTBLP 2]
MIC [1]: > 128 µg/mL
MIC [2]: > 128 µg/mL
MIC [3]: > 128 µg/mL
MIC [4]: >128 µg/mL
Interpretation ([5]; UTBLP + chloramphenicol): Additive (0.5 < x ≤ 4 is additive)
MICUTBLP [5, 19]: > 128 µg/mL
MICUTBLP [MICcombo] [5, 20]: 0.25 µg/mL
MICchloramphenicol [MICcombo] [5, 21]: 8 µg/mL
MIC [6]: 64 µg/mL (≈ 73.8 µM)
MIC [7]: 64 µg/mL (≈ 73.8 µM)
MIC [8]: > 128 µg/mL
MIC [9]: > 128 µg/mL
Interpretation ([10]; UTBLP + chloramphenicol): Additive (0.5 < x ≤ 4 is additive)
Interpretation ([10]; UTBLP + niclosamide): Synergy (FICI ≤ 0.5 is synergistic)
Interpretation ([10]; UTBLP + novobiocin): Synergy (FICI ≤ 0.5 is synergistic)
Interpretation ([10]; UTBLP + rifampicin): Synergy (FICI ≤ 0.5 is synergistic)
MICUTBLP ([10]; plate with chloramphenicol): > 128 µg/mL
MICUTBLP ([10]; plate with niclosamide): > 128 µg/mL
MICUTBLP ([10]; plate with novobiocin): > 128 µg/mL
MICUTBLP ([10]; plate with rifampicin): > 128 µg/mL
MICUTBLP [MICcombo] [10, 20]: 0.25 µg/mL
MICUTBLP [MICcombo] ([10]; UTBLP in combination with niclosamide): 4 µg/mL
MICUTBLP [MICcombo] [10, 22]: 8 µg/mL
MICUTBLP [MICcombo] [10, 23]: 16 µg/mL
MICantibiotic [MICcombo] [10, 21]: 2 µg/mL
MICantibiotic [MICcombo] ([10]; niclosamide in combination with the UTBLP): 2 µg/mL
MICantibiotic [MICcombo] [10, 24]: 1 µg/mL
MICantibiotic [MICcombo] [10, 25]: 0.125 µg/mL
Interpretation ([11]; UTBLP + novobiocin): Synergy (FICI ≤ 0.5 is synergistic)
Interpretation ([11]; UTBLP + rifampicin): Synergy (FICI ≤ 0.5 is synergistic)
MICUTBLP ([11]; plate with novobiocin): > 128 µg/mL
MICUTBLP ([11]; plate with rifampicin): > 128 µg/mL
MICUTBLP [MICcombo] [11, 22]: 16 µg/mL
MICUTBLP [MICcombo] [11, 23]: 16 µg/mL
MICantibiotic [MICcombo] [11, 24]: 1 µg/mL
MICantibiotic [MICcombo] [11, 25]: 0.125 µg/mL
Interpretation ([12]; UTBLP + chloramphenicol): Additive (0.5 < x ≤ 4 is additive)
MICUTBLP [12, 19]: > 128 µg/mL
MICUTBLP [MICcombo] [12, 20]: 0.25 µg/mL
MICchloramphenicol [MICcombo] [12, 21]: 8 µg/mL
MIC [13]: 128 µg/mL (≈ 148 µM)
MIC [14]: >128 µg/mL
MIC [15]: >128 µg/mL
Interpretation ([16]; UTBLP + chloramphenicol): Additive (0.5 < x ≤ 4 is additive)
MICUTBLP [16, 19]: 64 µg/mL
MICUTBLP [MICcombo] [16, 20]: 0.25 µg/mL
MICchloramphenicol [MICcombo] [16, 21]: 8 µg/mL
Interpretation ([17]; UTBLP + chloramphenicol): Additive (0.5 < x ≤ 4 is additive)
MICUTBLP [17, 19]: 64 µg/mL
MICUTBLP [MICcombo] [17, 20]: 0.25 µg/mL
MICchloramphenicol [MICcombo] [17, 21]: 16 µg/mL
MIC [18]: > 128 µg/mL
